Reference: PubChem BioAssay (NCI)
“And” between values parts separate entries of the source, which are not always exact repeats. Equal entries are not always repeated.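 Following 48 hours of exposure in 96-well plates, responses at five concentrations were used to interpolate endpoints linearly. The concentration for 50% growth inhibition is given as GI50. TGI: total growth inhibition.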

What follows are molecules tested on MDA-MB-468 breast (assay: growth of human tumour cells (NCI), 48 h).

SMILES | GI50 | TGI
C[C@H](c1ccc(Cl)cc1N)N1C(=O)c2cc(I)ccc2N(CCCN2CCN(C)CC2)C(=O)[C@@H]1c1ccc(Cl)cc1 | 1570 nM | 3140 nM
O=C1C=C(Nc2ccccc2)c2ncccc2C1=O | 1570 nM | 3160 nM
Cc1cc(NC(=O)c2ccc(NS(=O)(=O)CCO)cc2N2CCC3(CC2)CC3)nc(N2CCC(F)(F)CC2)n1 | 69.4 nM | 2930 nM
CCCCCCN(CCCCCC)C(=N)c1ccnc2ccccc12 | 3130 nM | 11100 nM
NC1=NC(=O)N2CC12 (stereo unspecified) | 76800 nM | 294000 nM
CC(C)(Cl)CCC1=C(Cl)C(=O)c2ccccc2C1=O | 1500 nM | 3490 nM
COc1ccc(C(=O)/C=C/c2cc3ccccc3[nH]c2=O)cc1 | 10500 nM | 23100 nM
CCN1C(=O)N(CC)C2C1NN=c1s/c(=C3\C(=O)N(CCC(C)C)c4ccccc43)c(=O)n12 (stereo unspecified) | 283 nM | 720 nM
CC(C)(C)c1cc(NC(=O)Nc2ccc(-c3cn4c5c(sc4n3)CCc3cn(CCCN4CCCCC4)cc3-5)cc2)no1 | 1840 nM | 3720 nM
CN(C)CC/C=C1\c2ccccc2Sc2ccc(Cl)cc21 | 1390 nM | 3020 nM
COc1ccc(-c2coc3ncnc(N)c23)cc1 | > 25000 nM | > 25000 nM
Nc1ncc(-c2cnn(C3CCNCC3)c2)cc1-c1nc2ccccc2o1 | 367 nM | 2330 nM
CCN(Cc1ccc(F)cc1)c1ccc(CO)c(Cl)c1 | 14.7 nM | 33.2 nM
Cc1ccc(-c2csc(N(C(=O)N3CCN(c4cc5c(cc4F)c(=O)c(C(=O)O)cn5C4CC4)CC3)c3ccccc3)n2)cc1 | 366 nM | > 100000 nM
CN1CCN(C(=O)c2ccc(NC(=O)Nc3ccc(N(C)c4ccnc(Nc5ccc(CS(C)(=O)=O)cc5)n4)cc3)cc2)CC1 | 4720 nM | > 25000 nM
O=c1ncc(-c2ccc(C(F)(F)F)cc2)c(NC2CCCCCC2)[nH]1 | 21000 nM | 51400 nM
COc1ccc(NC(=O)[C@H](C)NC(=O)OC(C)(C)C)cc1C(=O)Nc1cccc(-c2cc(=O)c3c(OC)c(OC)c(OC)cc3o2)c1 | 2250 nM | 6280 nM
O=C1C2CC3C(CC2C(=O)[N]1[Sn]([c]1ccccc1)([c]1ccccc1)[c]1ccccc1)C1(Cl)C(Cl)=C(Cl)C3(Cl)C1(Cl)Cl (stereo unspecified) | 120 nM | 280 nM
CCCCCCCCCCCCCOC(=O)c1c(C)[nH]c(/C=C2\N=C(c3ccc[nH]3)C=C2OC)c1C | 385 nM | 44100 nM
COc1cc2c(c(OC)c1OC)-c1ccc([O-])c(=O)cc1[C@@H](NC(C)=O)CC2.COc1cc2c(c(OC)c1OC)-c1ccc([O-])c(=O)cc1[C@@H](NC(C)=O)CC2.[Cu+2] | 4700 nM | 43200 nM
COc1cc2[nH]c(C(=O)c3cc(OC)c(OC)c(OC)c3)c(N)c2cc1C#CCO | 183 nM | > 100000 nM

SMILES | GI50 | TGI
COc1cc(N2CCC(N3CCN(C)CC3)CC2)ccc1Nc1ncc(Cl)c(Nc2ccccc2P(C)(C)=O)n1 | 1680 nM | 5290 nM
CS(=O)(=O)c1ccc(N/N=C/c2c(-c3ccc(S(C)(=O)=O)cc3)[nH]c3ccc(F)cc23)cc1 | 3490 nM | > 50000 nM
O=c1oc2ccc(Cl)cc2c(=O)n1-c1ccc(Cl)cc1F | 382 nM | 1870 nM
CNC(=O)c1ccc(Nc2ncc(C(F)(F)F)c(NCc3nccnc3N(C)S(C)(=O)=O)n2)cc1 | 1590 nM and 2060 nM and 1980 nM | 4990 nM and 5010 nM and 5290 nM
CCc1ccc(C2=C/C(=C/c3ccc(Cl)cc3)C(=O)N2CCc2ccc(S(N)(=O)=O)cc2)cc1 | 1940 nM | 5250 nM
Brc1cccc(/C=N/Nc2nc(N/N=C/c3cccc(Br)c3)nc(N3CCOCC3)n2)c1 | 1910 nM | 6090 nM
COc1cc2c(c(OC)c1OC)-c1ccc(OC)c(=O)cc1[C@@H](NC(=O)CCl)CC2 | < 10 nM | < 10 nM
C/C(=C\c1ccn(-c2ccc(N)c(C(F)(F)F)c2)n1)[C@@H]1C[C@@H]2O[C@]2(C)CCC[C@H](C)[C@H](O)[C@@H](C)C(=O)C(C)(C)[C@@H](O)CC(=O)O1 | 10.6 nM | 14200 nM
CCC1CCc2nc3sc(C(=O)Nc4ccccc4F)c(N)c3cc2C1 (stereo unspecified) | 347 nM | > 100000 nM
COc1cccc(-c2nn(-c3ccccc3)cc2-c2ccnc(NCCNS(=O)(=O)c3ccc(C(F)(F)F)cc3)c2)c1 | 3310 nM | 15100 nM
CCCCCCCCN(CCCCCCCC)C(=N)c1ccnc2ccccc12 | 342 nM | 1270 nM
CS(=O)(=O)CCNCc1ccc(-c2ccc3ncnc(Nc4ccc(OCc5ccccc5)c(C(F)(F)F)c4)c3c2)o1 | 1860 nM | 6400 nM
O=S(=O)(NCCNc1cc(-c2cn(-c3ccccc3)nc2-c2cccc(O)c2)ccn1)c1ccc(C(F)(F)F)cc1 | 2050 nM | 5020 nM
COc1ccc(OC)c(/C=C/c2nnc(Nc3ccc(Cl)cc3)o2)c1 | 16400 nM | > 100000 nM
Nc1ccccc1NC(=O)c1ccc(CSc2nc(N3CCOCC3)c3cccn3n2)cc1 | 1720 nM | 6470 nM
COc1ccc(C(=S)c2cc(OC)c(OC)c(OC)c2)cc1OC(=O)CCl | 96.4 nM | –
O=C1C(=O)c2cc([N+](=O)[O-])ccc2-c2ccccc21 | 1640 nM | 3190 nM
Nc1nc(N)c2nc(CNc3ccc(C(=O)CC(CCC(=O)O)C(=O)O)cc3)cnc2n1 (stereo unspecified) | 208 nM | 2340 nM
C#C[C@@]1(O)[C@@H](CO)O[C@@H](n2cc(Cl)c3c(N)ncnc32)[C@@H]1O | 180 nM | 451 nM
CCOC(=O)[C@H](CSSc1ncnc2cc[nH]c12)NC(=O)[C@@H](C)c1ccc2cc(OC)ccc2c1 | 179 nM | 91700 nM
